According to patent US6306636A, “Nucleic acid segments encoding wheat acetyl-CoA carboxylase” (Arch Development Corporation, priority 1997, dated 2001):

How the values were obtained:
[1] = test system: strain MJ 1.12 expressing wheat cytosolic ACCase; test: In vivo growth inhibition of yeast gene-replacement strain expressing wheat cytosolic ACCase; assay type: cell-based, S. cerevisiae; conditions: for effect on growth of gene-replacement strain (in vivo): MJ 1.12, liquid culture, YPR medium with 0.01% galactose
Method: The yeast complex medium for vegetative growth contained 1% Bacto-yeast extract, 2% Bacto-peptone, 0.1% adenine sulfate and was supplemented with the following carbon sources: 2% Dextrose in YPD, 2% Raffinose in YPR, 2% galactose and 2% raffinose in YPRG. The yeast synthetic minimal medium (SD) contained 0.17% yeast nitrogen base, 0.5% ammonium sulfate, 2% dextrose, and was supplemented with various additives required for growth: adenine sulfate (10 mg/L), uracil (20 mg/L), histidine (20 mg/L), leucine (200 mg/L) and/or tryptophane (50 mg/L). The SRG medium is identical to SD, with dextrose replaced by 2% raffinose and 2% galactose. 2% bacto-agar was used in solid media. SPII (2% potassium acetate, supplemented with essential amino acids at 7.5 mg/L) and SPIII (0.1% bacto-yeast extract and 2% bacto-agar added to SPII) media for sporulation are described in (Klapholz and Esposito, 1982; Klapholz et al;. 1985). S. cerevisiae strain W303D-ACC1^ΔLEU2 was also obtained from Dr. S. D. Kohlwein. Yeast cells were transformed as described before (Chen et al., 1992) using Frozen-ELZ kit (Zymo Research, Orange Calif.) according to the manufacturer's protocol and transformants were selected using SD plates lacking a marker amino acid. Sporulation was induced in SPII or SPIII medium at 30° C. for 2-3 days. Dissection of asci was performed as described (Guthrie and Fink, 1991). YPD or YPRG plates were used for vegetative growth of ascospore clones following dissection. Galactose-dependent strains (MJ 6.8, 6.9, 1.12 and 1.13) were grown in YPRG medium and other strains in YPD medium, all at 30° C. To measure galactose induction, the strains were grown for ~24 h in YPR medium until all galactose was exhausted (growth of galactose-dependent strains ceased), and then diluted ~100 fold with YPR medium containing various amounts of galactose.
(§1) Sethoxydim and Cethoxydim (CGA215684) were obtained from CIBA-GEIGY and haloxyfop was obtained from DowElanco. To measure inhibition in vivo, galactose-dependent strains were grown in YPR containing 0.01% galactose (to A600 of ~0.5) and then diluted (~100 fold) to the same initial density with fresh YPR medium containing 0.01% galactose and varying amounts of herbicide added as 100-fold concentrated stock solutions in DMSO. ACCase activity in vitro was measured using protein extracts prepared as described (Mitchell et al., 1993) from 25-50 ml cultures of yeast strains MJ 1.12 and MG 9.11 grown for 24-40 h. Cells were suspended in one volume of extraction buffer (0.3 M sorbitol, 0.1 M NaCl, 5 mM MgCl2, 10 mM Tris pH 7.4, supplemented with protease inhibitors: aprotinin (6.6 μ/mL), leupeptin (1.5 μ/mL), pepstatin A (3 μ/mL) and chymostatin (1 μg/mL), and vortexed with 2 volumes of glass beads for 5 min at 4° C. 1/200 volume of 100 mM ethanol solution of phenylmethylsulfonyl fluoride was added twice during extraction. The cell debris were removed by centrifugation and the supenatant (~0.5 ml) was loaded immediately on a 20 ml Sephadex G50 column equilibrated with 100 mM KCl, 20 mM Tris/HCl (pH 7.5), 20% glycerol, 7 mM β-mercaptoethanol. Protein was eluted with the same buffer and stored at -70° C. ACCase activity was measured as described before (Gornicki and Haselkorn, 1993) using aliquots of the column fractions. Herbicides were added to the reaction mixtures (1/10 or 1/20 volume) as a solution in 0.25-0.75 M Tris-HCl, pH8.0 containing 25% DMSO. Wheat germ extract was purchased from Promega.

[2] = test system: T1, wheat cytosolic ACCase expressed in yeast; test: In vitro inhibition of wheat cytosolic ACCase expressed in yeast (gel-filtered crude extract); assay type: biochemical
T1 construct: Full length cDNA encoding wheat cytosolic ACCase was assembled; made in house; host or cells: S. cerevisiae haploid gene-replacement strain MJ 1.12 (crude extract, Sephadex G50)
Method: as §1, with “Protein was eluted with the same buffer and stored at -70° C.” left out, “Herbicides were added to the reaction mixtures (1/10 or 1/20 volume) as a solution in 0.25-0.75 M Tris-HCl, pH8.0 containing 25% DMSO. Wheat germ extract was purchased from Promega.” left out

yeast ACCase = target: T2, yeast ACCase (Saccharomyces cerevisiae, UniProt Q00955); test: In vitro inhibition of yeast ACCase (gel-filtered crude extract); assay type: biochemical, S. cerevisiae
T2 construct: containing one copy of the yeast ACC1 gene (on the chromosome) and expressing ACCase under its own promoter; endogenous in cells; host or cells: S. cerevisiae haploid strain MJ 9.11 (W303D-derived), crude extract, Sephadex G50
Method: as §1, with “Protein was eluted with the same buffer and stored at -70° C.” left out, “Herbicides were added to the reaction mixtures (1/10 or 1/20 volume) as a solution in 0.25-0.75 M Tris-HCl, pH8.0 containing 25% DMSO. Wheat germ extract was purchased from Promega.” left out

[3] = target: T3, wheat plastid ACCase (wheat germ extract) (Triticum aestivum, UniProt O48959); test: In vitro inhibition of ACCase in wheat germ extract; assay type: biochemical; conditions: wheat plastid enzyme in wheat germ extract
T3 construct: mixed homoeologues, some cytosolic ACCase present
Method: as §1, with “Protein was eluted with the same buffer and stored at -70° C.” left out, “Herbicides were added to the reaction mixtures (1/10 or 1/20 volume) as a solution in 0.25-0.75 M Tris-HCl, pH8.0 containing 25% DMSO. Wheat germ extract was purchased from Promega.” left out

[4] = test system: strain MJ 9.11 expressing yeast ACCase (ACC1); test: In vivo growth inhibition of yeast strain expressing yeast ACCase; assay type: cell-based, S. cerevisiae; conditions: MJ 9.11, 800 μM inhibitor
Method: The yeast complex medium for vegetative growth contained 1% Bacto-yeast extract, 2% Bacto-peptone, 0.1% adenine sulfate and was supplemented with the following carbon sources: 2% Dextrose in YPD, 2% Raffinose in YPR, 2% galactose and 2% raffinose in YPRG. The yeast synthetic minimal medium (SD) contained 0.17% yeast nitrogen base, 0.5% ammonium sulfate, 2% dextrose, and was supplemented with various additives required for growth: adenine sulfate (10 mg/L), uracil (20 mg/L), histidine (20 mg/L), leucine (200 mg/L) and/or tryptophane (50 mg/L). The SRG medium is identical to SD, with dextrose replaced by 2% raffinose and 2% galactose. 2% bacto-agar was used in solid media. SPII (2% potassium acetate, supplemented with essential amino acids at 7.5 mg/L) and SPIII (0.1% bacto-yeast extract and 2% bacto-agar added to SPII) media for sporulation are described in (Klapholz and Esposito, 1982; Klapholz et al;. 1985). […]
Sethoxydim and Cethoxydim (CGA215684) were obtained from CIBA-GEIGY and haloxyfop was obtained from DowElanco. […] ACCase activity in vitro was measured using protein extracts prepared as described (Mitchell et al., 1993) from 25-50 ml cultures of yeast strains MJ 1.12 and MG 9.11 grown for 24-40 h. […] ACCase activity was measured as described before (Gornicki and Haselkorn, 1993) using aliquots of the column fractions. […]

[5] = test system: maize ACCase, first minor peak; conditions: 50 μM; first minor peak (Howard and Ridley, 1990); cited from earlier work
[6] = target: T4, enzyme from pea chloroplasts (ACCase) (Pisum sativum, UniProt P18823+Q41008); test: In vitro ACCase activity assay, pea chloroplast enzyme; assay type: biochemical; conditions: read-out: 50% inhibition of ACCase activity
T4 construct: the enzyme from pea chloroplasts is relatively resistant; from tissue; host or cells: pea chloroplasts
T4 sequence (P18823 1-590): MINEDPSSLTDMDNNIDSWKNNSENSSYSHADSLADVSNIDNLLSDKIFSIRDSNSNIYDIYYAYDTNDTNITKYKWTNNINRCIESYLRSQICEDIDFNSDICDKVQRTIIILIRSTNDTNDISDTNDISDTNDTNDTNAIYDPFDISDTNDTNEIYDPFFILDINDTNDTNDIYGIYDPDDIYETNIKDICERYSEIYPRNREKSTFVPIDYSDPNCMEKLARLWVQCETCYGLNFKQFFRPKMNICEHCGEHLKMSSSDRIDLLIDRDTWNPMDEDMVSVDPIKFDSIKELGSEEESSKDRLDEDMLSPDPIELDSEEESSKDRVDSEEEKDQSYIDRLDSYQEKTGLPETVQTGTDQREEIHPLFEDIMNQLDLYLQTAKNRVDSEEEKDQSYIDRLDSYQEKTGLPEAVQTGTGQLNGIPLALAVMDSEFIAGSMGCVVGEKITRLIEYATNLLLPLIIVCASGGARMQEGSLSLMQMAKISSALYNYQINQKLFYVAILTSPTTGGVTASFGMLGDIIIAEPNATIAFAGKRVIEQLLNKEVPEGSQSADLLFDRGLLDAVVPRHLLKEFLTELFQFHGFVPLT
T4 sequence (Q41008 51-875): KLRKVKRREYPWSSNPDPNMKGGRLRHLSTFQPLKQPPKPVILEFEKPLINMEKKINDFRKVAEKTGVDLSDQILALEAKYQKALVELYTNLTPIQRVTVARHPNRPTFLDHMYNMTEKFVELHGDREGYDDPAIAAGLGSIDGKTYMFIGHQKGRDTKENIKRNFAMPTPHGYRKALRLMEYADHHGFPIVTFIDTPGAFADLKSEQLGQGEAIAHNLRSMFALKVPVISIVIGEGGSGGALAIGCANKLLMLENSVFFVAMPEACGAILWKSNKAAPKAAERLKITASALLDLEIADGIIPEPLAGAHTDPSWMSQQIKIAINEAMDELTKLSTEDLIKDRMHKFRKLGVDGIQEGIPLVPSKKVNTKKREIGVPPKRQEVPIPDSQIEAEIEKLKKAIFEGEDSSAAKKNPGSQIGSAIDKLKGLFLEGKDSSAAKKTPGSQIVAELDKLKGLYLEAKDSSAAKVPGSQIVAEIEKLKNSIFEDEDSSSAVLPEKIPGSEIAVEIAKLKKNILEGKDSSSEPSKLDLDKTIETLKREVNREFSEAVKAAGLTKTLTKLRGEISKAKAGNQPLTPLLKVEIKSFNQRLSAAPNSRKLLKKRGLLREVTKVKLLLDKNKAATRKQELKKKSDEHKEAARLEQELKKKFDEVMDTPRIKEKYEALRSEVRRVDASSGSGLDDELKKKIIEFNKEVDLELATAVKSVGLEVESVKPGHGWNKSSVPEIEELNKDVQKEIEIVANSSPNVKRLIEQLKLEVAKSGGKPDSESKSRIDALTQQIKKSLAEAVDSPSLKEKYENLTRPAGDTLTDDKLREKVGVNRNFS

[7] = test system: wheat seedling leaves (ACCase, fatty acid synthesis); test: In vivo incorporation of 14C-acetate into fatty acids in cut wheat seedling leaves; design: species or system wheat (Triticum aestivum cv. Era); conditions: Triticum aestivum; freshly cut wheat seedling leaves, 4-6 h; read-out: 50% inhibition of in vivo incorporation of 14C-acetate into fatty acids
Method: For the in vivo assay of ACCase activity, 2-week old seedlings of wheat (Triticum aestivum cv. Era) were cut about 1 cm below the first leaf and transferred to a 1.5 ml micro tube containing ^14 C-sodium acetate and haloxyfop (Tris salt) for 4-6 h. The leaves were then cut into small pieces and treated with 0.5 ml of 40% KOH for 1 h at 70° C., and then with 0.3 ml of H2 SO4 and 20 μl of 30% TCA on ice. Fatty acids were extracted with three 0.5 ml aliquots of petroleum ether. The organic phase was washed with 1 ml of water. Incorporation of ^14 C-acetate into fatty acids is expressed as the percentage of the total radioactivity taken up by the seedlings. present in the organic phase.

[8] = target: T3, wheat plastid ACCase (wheat germ extract); conditions: shown previously (Gornicki and Haselkorn, 1993); cited from earlier work

T3 sequence (O48959 1-2311): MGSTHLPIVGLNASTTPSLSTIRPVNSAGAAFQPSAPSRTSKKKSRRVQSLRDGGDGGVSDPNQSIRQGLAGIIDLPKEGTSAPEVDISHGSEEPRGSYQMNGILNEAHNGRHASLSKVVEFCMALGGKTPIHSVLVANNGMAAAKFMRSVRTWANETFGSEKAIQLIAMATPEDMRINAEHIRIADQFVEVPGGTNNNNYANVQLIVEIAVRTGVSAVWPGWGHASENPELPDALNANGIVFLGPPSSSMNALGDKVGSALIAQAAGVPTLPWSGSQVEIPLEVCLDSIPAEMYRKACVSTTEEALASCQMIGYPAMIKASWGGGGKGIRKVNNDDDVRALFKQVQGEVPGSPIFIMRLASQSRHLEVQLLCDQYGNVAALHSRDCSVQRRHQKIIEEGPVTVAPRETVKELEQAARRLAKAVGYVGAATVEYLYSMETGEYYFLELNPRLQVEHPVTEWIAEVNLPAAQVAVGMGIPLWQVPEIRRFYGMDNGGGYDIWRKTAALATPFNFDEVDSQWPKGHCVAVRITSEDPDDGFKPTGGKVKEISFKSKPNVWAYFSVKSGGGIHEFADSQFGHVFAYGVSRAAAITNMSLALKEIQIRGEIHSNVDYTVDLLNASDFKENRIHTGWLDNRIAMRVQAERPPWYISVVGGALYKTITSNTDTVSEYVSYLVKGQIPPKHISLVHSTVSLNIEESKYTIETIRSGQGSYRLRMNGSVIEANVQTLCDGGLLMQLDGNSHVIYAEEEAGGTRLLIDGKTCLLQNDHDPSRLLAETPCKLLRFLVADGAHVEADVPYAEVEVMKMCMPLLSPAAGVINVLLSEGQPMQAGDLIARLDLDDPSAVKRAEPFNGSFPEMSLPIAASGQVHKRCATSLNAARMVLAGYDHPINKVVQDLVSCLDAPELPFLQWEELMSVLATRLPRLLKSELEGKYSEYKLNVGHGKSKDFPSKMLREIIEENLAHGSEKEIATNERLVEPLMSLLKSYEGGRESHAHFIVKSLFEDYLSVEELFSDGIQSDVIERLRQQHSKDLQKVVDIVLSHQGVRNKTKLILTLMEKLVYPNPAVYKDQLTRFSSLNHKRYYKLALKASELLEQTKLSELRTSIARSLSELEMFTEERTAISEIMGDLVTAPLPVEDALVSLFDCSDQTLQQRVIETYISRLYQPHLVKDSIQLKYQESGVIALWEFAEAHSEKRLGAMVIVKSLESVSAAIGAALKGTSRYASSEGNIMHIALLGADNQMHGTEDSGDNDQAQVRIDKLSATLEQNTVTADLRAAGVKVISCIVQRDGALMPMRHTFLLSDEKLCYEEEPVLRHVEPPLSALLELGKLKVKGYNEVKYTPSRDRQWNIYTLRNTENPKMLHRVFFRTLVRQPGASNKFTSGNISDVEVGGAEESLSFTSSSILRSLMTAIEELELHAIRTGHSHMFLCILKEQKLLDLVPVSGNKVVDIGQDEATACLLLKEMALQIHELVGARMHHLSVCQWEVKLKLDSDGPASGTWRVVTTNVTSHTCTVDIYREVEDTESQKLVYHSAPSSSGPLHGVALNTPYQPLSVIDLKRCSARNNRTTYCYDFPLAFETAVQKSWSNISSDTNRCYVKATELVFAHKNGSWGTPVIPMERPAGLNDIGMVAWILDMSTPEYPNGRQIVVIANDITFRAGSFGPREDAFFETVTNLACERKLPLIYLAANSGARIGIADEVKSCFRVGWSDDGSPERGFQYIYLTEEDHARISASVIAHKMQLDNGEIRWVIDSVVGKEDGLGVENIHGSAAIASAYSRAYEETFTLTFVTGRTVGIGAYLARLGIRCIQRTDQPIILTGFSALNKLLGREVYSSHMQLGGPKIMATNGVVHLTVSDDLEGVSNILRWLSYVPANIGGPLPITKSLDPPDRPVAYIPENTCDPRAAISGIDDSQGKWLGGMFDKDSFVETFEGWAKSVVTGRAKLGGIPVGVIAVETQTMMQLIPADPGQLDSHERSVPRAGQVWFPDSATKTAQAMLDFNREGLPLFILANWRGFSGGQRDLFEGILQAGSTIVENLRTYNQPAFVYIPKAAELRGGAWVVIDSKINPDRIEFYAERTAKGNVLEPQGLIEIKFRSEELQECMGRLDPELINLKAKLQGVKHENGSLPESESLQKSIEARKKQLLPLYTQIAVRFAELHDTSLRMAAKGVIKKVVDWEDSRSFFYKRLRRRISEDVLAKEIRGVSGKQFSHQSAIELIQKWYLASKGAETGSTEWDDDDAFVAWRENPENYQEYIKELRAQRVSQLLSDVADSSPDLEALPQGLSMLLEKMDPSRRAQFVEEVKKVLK
T1 sequence (Q38970 whole entry): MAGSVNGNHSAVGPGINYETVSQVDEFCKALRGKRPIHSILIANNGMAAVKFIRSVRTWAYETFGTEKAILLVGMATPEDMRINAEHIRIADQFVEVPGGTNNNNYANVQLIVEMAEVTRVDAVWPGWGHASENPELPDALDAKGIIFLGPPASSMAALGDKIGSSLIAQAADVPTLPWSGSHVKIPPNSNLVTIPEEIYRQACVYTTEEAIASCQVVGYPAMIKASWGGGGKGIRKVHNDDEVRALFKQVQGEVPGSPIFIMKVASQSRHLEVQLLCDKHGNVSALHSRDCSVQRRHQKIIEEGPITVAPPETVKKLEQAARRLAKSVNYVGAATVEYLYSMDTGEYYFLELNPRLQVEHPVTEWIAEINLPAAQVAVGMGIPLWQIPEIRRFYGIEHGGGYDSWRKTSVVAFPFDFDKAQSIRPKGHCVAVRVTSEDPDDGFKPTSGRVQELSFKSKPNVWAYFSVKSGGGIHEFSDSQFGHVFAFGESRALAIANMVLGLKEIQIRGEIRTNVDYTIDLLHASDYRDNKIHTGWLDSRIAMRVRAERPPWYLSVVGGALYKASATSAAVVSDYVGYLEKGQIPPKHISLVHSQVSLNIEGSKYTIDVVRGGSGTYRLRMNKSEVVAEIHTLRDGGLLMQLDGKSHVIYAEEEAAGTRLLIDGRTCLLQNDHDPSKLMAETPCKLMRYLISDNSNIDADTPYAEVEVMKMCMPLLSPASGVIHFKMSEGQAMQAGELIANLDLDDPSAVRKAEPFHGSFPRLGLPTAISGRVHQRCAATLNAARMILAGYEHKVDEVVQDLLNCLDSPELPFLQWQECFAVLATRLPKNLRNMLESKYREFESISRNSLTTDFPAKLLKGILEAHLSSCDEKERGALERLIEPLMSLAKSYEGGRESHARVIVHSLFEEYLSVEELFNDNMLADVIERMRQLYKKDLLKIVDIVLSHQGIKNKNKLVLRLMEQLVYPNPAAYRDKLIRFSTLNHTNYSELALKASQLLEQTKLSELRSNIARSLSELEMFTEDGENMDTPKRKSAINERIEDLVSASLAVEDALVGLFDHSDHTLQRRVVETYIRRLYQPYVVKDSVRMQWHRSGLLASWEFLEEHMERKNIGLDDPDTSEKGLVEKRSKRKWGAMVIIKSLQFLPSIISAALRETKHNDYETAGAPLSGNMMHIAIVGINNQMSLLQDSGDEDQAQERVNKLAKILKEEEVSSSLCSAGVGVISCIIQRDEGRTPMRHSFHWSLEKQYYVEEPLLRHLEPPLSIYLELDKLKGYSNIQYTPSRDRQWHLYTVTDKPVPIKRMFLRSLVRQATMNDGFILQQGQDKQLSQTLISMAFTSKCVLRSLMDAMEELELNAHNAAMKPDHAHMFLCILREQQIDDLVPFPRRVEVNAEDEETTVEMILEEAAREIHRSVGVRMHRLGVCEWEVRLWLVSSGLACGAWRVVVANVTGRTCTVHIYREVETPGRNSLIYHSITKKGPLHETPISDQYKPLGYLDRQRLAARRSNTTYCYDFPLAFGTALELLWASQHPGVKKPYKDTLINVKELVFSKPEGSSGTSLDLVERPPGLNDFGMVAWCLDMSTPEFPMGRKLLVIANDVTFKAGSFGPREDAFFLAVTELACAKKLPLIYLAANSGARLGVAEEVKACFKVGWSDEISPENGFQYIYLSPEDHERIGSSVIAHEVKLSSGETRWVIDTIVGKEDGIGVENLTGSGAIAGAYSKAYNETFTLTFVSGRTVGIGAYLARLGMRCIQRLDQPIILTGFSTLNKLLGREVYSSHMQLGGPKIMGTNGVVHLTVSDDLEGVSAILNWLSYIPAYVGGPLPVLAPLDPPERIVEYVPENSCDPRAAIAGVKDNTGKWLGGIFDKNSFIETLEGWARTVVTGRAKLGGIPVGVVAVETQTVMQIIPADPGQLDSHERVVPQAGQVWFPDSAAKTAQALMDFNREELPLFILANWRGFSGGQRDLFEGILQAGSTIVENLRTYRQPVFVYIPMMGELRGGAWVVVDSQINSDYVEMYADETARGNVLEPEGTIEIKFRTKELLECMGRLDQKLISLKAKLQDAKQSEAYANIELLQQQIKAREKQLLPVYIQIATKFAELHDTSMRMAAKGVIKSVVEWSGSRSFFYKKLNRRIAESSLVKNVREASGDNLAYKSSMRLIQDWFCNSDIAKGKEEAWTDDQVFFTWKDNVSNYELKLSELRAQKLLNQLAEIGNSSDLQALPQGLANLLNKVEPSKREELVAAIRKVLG

Row | Compound | effect on growth of gene-replacement strain (in vivo) [1] | in vitro inhibition of ACCase activity [2] | in vitro inhibition of ACCase activity (yeast ACCase) | in vitro inhibition of ACCase activity [3] | growth at 800 μM ([1]; MJ 1.12, 800 μM inhibitor) | IC50 ([1]; Saccharomyces cerevisiae, MJ 1.12, YPR medium with 0.01% galactose, A600 24 hrs after inoculation, read-out: 50% inhibition of growth) [µM] | growth at 800 μM [4] | inhibition of ACCase activity [5] | IC50 [6] [µM] | IC50 [7] [µM] | sensitivity of ACCase activity to inhibitor [8]
1 | CCC/C(=N\OCC)C1=C(O)CC(CC(C)SCC)CC1=O (stereo not shown) [Sethoxydim] | no effect | does not inhibit | does not inhibit | weakest inhibitor |  |  |  |  |  |  | 
2 | CCC(=NOCC=CCl)C1C(=O)CC(C2(SC)CC2)CC1=O (stereo not shown) [cethoxydim, Cethoxydim] | completely inhibits growth | moderately inhibits | although not completely resistant, is less sensitive | much stronger inhibitor | does not grow at all | ~20 | unaffected |  |  |  | 
3 | CC(Oc1ccc(Oc2ccc(C(F)(F)F)cn2)cc1)C(=O)O (stereo not shown) [fiuazifop, fluazifop] |  |  |  |  |  |  |  | not inhibited |  |  | 
4 | CC(Oc1ccc(Oc2ncc(C(F)(F)F)cc2Cl)cc1)C(=O)O (stereo not shown) [haloxyfop] | no effect |  |  |  |  |  |  |  | > 50 | < 1 | highly sensitive
